Reference: US20110152269A1, “PROCESS FOR TREATING ANIMAL HABITATS” (H&S Chemical Company, Inc., priority 2001, published 2011)

What was measured:
salmonella = assay: Monitoring for salmonella in treated poultry houses during grow out; conditions: houses and bedding sprayed with 200 ppm aqueous solution before placement of birds; two houses of 25,000 birds; wood chip bedding; 56 day grow out
Description: Two poultry houses containing 25,000 birds each were treated by spraying the houses and bedding contained therein with an aqueous solution of TCM, at a concentration of 200 ppm. Treatment was effected prior to placement of the birds in the poultry house. The bedding utilized was popular wood chips. After 56 days the grow out was complete. During the grow out the presence of salmonella was monitored.
An untreated poultry house containing 25,000 birds was monitored during a 56 day grow out for the presence of salmonella. The bedding utilized was popular wood chips. After 56 days the grow out was complete. During the grow out the poultry house tested positive for salmonella.

[1] = Ammonia concentration in treated poultry houses during grow out; conditions: houses and bedding sprayed with 200 ppm aqueous solution before placement of birds; two houses of 26,000 birds; wood chip bedding; 57 day grow out
Description: Two poultry houses containing 26,000 birds each were treated, by spraying the houses and bedding contained therein, with an aqueous solution of a product sold under the trademark PLT, at a concentration of 200 ppm. Treatment was effected prior to placement of the birds in the poultry houses. The bedding utilized was popular wood chips. After 57 days the grow out was complete. During the grow out periods the concentration of ammonia in the poultry houses varied between 30 and 70 ppm. […] Two poultry houses containing 26,000 birds each were treated by spraying the houses and bedding contained therein with an aqueous solution of TCM, at a concentration of 200 ppm. Treatment was effected prior to placement of the birds in the poultry houses. The bedding utilized was popular wood chips. After 57 days the grow out was complete. During the grow out the concentration of ammonia in the poultry houses never exceeded 20 ppm.

## trichloromelamine [TCM]
salmonella
  presence of salmonella during the grow out: no salmonella was detected
[1]
  concentration of ammonia in the poultry houses: ≤ 20 ppm
